Values of other authors as cited in patent US20260201040A1, “TREATMENT OF SICKLE CELL DISEASE” (BioLineRx Ltd., priority 2022, published 2026).

Test system: CD34+ HSCs
Conditions: short-acting CXCR4i, alone

Structure (SMILES): c1cc(CN2CCCNCCNCCCNCC2)ccc1CN1CCCNCCNCCCNCC1 [plerixafor]
- yield of optimal HSC numbers for gene therapy applications: does not reliably yield optimal HSC numbers
